Reference: patent US20210338708A1, “METHOD FOR TREATMENT OF CORONAVIRUS INFECTION” (Renibus Therapeutics, Inc., priority 2020, published 2021)
“And” between values parts separate entries of the source, which are not always exact repeats. Equal values may be shown once. Read-outs that look alike come from different tables or passages of the source.

What was measured:
dengue virus = conditions: by inhibiting synthesis of NSP1; cited from earlier work
Vero E6 cell line = Vero E6 cell line in the presence of SARS-CoV-2; NCATS/NIH data; cited from earlier work
yellow fever virus = conditions: by inhibiting synthesis of NSP1; cited from earlier work
SARS-CoV-2 [1] = assay: Reduction of virus yield (Secondary VYR assay); assay type: cell-based, SARS-CoV-2 USA_WA1/2020; conditions: Vero 76, 1 hour pretreatment of compound and virus, read-out: TEST EC90
Procedure: Active compounds are further tested in a confirmatory assay. This assay is set up similar to the methodology described above only eight half-log 10 concentrations of inhibitor are tested for antiviral activity and cytotoxicity. After sufficient virus replication occurs (3 days for SARS-CoV-2), a sample of supernatant is taken from each infected well (three replicate wells are pooled) and tested immediately or held frozen at −80° C. for later virus titer determination. After maximum CPE is observed, the viable plates are stained with neutral red dye. The incorporated dye content is quantified as described above to generate the EC50 and CC50 values.
Virus yielded in the presence of test compound is titrated and compared to virus titers from the untreated virus controls. Titration of the viral samples (collected as described in the paragraph above) is performed by endpoint dilution (Reed, L. J., and H. Muench. “A Simple Method of Estimating Fifty Percent Endpoints.” Am J Hyg 27 (1938): 493-98.)
Serial 1/10 dilutions of virus are made and plated into 4 replicate wells containing fresh cell monolayers of Vero 76 cells. Plates are then incubated, and cells are scored for the presence or absence of virus after a distinct CPE is observed, and the CCID50 calculated using the Reed-Muench method. […]

SARS-CoV-2 [2] = assay: Reduction of virus-induced cytopathic effect (visual and neutral red) within secondary assay; assay type: cell-based, SARS-CoV-2 USA_WA1/2020; conditions: Vero 76, 1 hour pretreatment of compound and virus
Procedure: Confluent or near-confluent cell culture monolayers of Vero 76 cells are prepared in 96-well disposable microplates the day before testing. Cells are maintained in minimum essential medium (MEM) supplemented with 5% FBS. For antiviral assays the same medium is used but with FBS reduced to 2% and supplemented with 50-μg/ml gentamicin. Compounds are dissolved in DMSO, saline or the diluent requested by the submitter. […] The test compound is prepared at four serial log 10 concentrations, usually 0.1, 1.0, 10, and […] or μM (per sponsor preference). Lower concentrations are used when insufficient compound is supplied. Five microwells are used per dilution: three for infected cultures and two for uninfected toxicity cultures. Controls for the experiment consist of six microwells that are infected and not treated (virus controls) and six that are untreated and uninfected (cell controls) on every plate. A known active drug is tested in parallel as a positive control drug using the same method as is applied for test compounds. […]
Growth media is removed from the cells and the test compound is applied in 0.1 ml volume to wells at 2× concentration. […] The dye content in each well is quantified using a spectrophotometer at 540 nm wavelength. […]
Active compounds are further tested in a confirmatory assay. […] The incorporated dye content is quantified as described above to generate the EC50 and CC50 values.

SARS-CoV-2 [3] = assay type: cell-based, SARS-CoV-2 (2019-nCoV/USA-WA1/2020 strain)
SARS-CoV-2 [4] = assay type: cell-based, SARS-CoV-2 (2019-nCoV/USA-WA1/2020 strain); conditions: viral replication; for % reduction relative to virus control / Virus titer, Average: 11.11 μM; for Virus titer, Rep-1 to Rep-3: 100 μM
SARS-CoV-2 [5] = assay type: cell-based, SARS-CoV-2 (2019-nCoV/USA-WA1/2020 strain); conditions: for Plaque counts: replicates, direct inactivation, Vero E6, 24 h
SARS-CoV-2 [6] = assay type: cell-based, SARS-CoV-2 (2019-nCoV/USA-WA1/2020 strain); conditions: for Plaque counts: replicates, viral replication, Vero E6, 24 h

## C=CC1=C(C)c2cc3[n-]c(cc4[n-]c(cc5nc(cc1n2)C(C)=C5C=C)c(C)c4CCC(=O)O)c(CCC(=O)O)c3C.[Sn+2] [RBT-9, Stannous protoporphyrin]
Dengue virus
  inhibition of viral infection: inhibit viral infection
Vero E6 cell line
  CC50: > 30 µM
Yellow fever virus
  inhibition of viral infection: inhibit viral infection
SARS-CoV-2 [1]
  EC90: 0.97 µM
SARS-CoV-2 [2]; neutral red, read-out: NR EC50
  EC50: 1.5 µM
SARS-CoV-2 [2]; visual, read-out: VIS EC50
  EC50: 1.5 µM
SARS-CoV-2 [3]
  % reduction relative to virus control: 46.2%
  Virus titer, Average: 0.98×10^4 PFU/ml
SARS-CoV-2 [3]; 0.411 μM, direct inactivation
  % reduction relative to virus control: No reduction
  Virus titer, Average: 1.83 × 10^4 PFU/ml
  Virus titer, Rep-1 to Rep-3: 2.25 × 10^4 PFU/ml and 1.75 × 10^4 PFU/ml and 1.5 × 10^4 PFU/ml
SARS-CoV-2 [3]; 0.411 μM, direct inactivation, listed as SnPP
  % reduction relative to virus control: no reduction
SARS-CoV-2 [3]; 3.7 μM, direct inactivation
  % reduction relative to virus control: 98.6%
  Virus titer, Average: 0.25 × 10^4 PFU/ml
SARS-CoV-2 [3]; 3.7 μM, direct inactivation, listed as SnPP
  % reduction relative to virus control: About 98.6%
SARS-CoV-2 [4]
  % reduction relative to virus control: 48%
  Virus titer, Average: 2 × 10^4 pfu/ml
  Virus titer, Rep-1 to Rep-3: not detected
SARS-CoV-2 [4]; listed as SnPP
  % reduction relative to virus control: about 48%
  Virus titer, Average: 2×10^4
  Virus titer, Rep-1 to Rep-3: could not be detected
SARS-CoV-2 [5]; 0.005 μM
  Plaque counts: 203 and 304 and 260 and 236
SARS-CoV-2 [5]; 0.015 μM
  Plaque counts: 189 and 212
SARS-CoV-2 [5]; 0.046 μM
  Plaque counts: 222 and 332 and 256 and 196
SARS-CoV-2 [5]; 0.14 μM
  Plaque counts: 217 and 354 and 230 and 174
SARS-CoV-2 [5]; 0.41 μM
  Plaque counts: 259 and 194 and 205 and 235
SARS-CoV-2 [5]; 1.23 μM
  Plaque counts: 117 and 64 and 132 and 189
SARS-CoV-2 [5]; 3.70 μM
  Plaque counts: 0 (3×) and 48
SARS-CoV-2 [5]; 11.11 μM
  Plaque counts: 0
SARS-CoV-2 [5]; 33.33 μM
  Plaque counts: 0
SARS-CoV-2 [5]; 100 μM
  Plaque counts: 0
SARS-CoV-2 [5]; read-out: mean EC50, direct SARS-CoV-2 inactivation
  EC50: 1.32 µM
Vero E6 cells
  cytopathic effect (CPE) of SnPP: did not observe a cytopathic effect (CPE)
Vero 76 cells
  CC50: 39 µM
Vero 76 cells; read-out: VIS CC50, visual, Vero 76
  CC50: 27 µM
SARS-CoV-2 [6]; 0.005 μM
  Plaque counts: 363 and 342 and 223 and 294
SARS-CoV-2 [6]; 0.015 μM
  Plaque counts: 136 and 228 and 172 and 164
SARS-CoV-2 [6]; 0.046 μM
  Plaque counts: 170 and 167 and 182 and 259
SARS-CoV-2 [6]; 0.14 μM
  Plaque counts: 293 and 228 and 264 and 211
SARS-CoV-2 [6]; 0.41 μM
  Plaque counts: 292 and 243 and 309 and 304
SARS-CoV-2 [6]; 1.23 μM
  Plaque counts: 290 and 286 and 320 and 294
SARS-CoV-2 [6]; 3.70 μM
  Plaque counts: 130 and 125 (2×) and 153
SARS-CoV-2 [6]; 11.11 μM
  Plaque counts: 143 and 134 and 129 and 145
SARS-CoV-2 [6]; 33.33 μM
  Plaque counts: 89 and 99 and 78 and 79
SARS-CoV-2 [6]; 100 μM
  Plaque counts: 15 (2×) and 12 and 7
SARS-CoV-2 [6]; read-out: EC50, SARS-CoV-2 replication
  EC50: 45.7 µM

## CCC(CC)COC(=O)[C@H](C)N[P@](=O)(OC[C@H]1O[C@@](C#N)(c2ccc3c(N)ncnn23)[C@H](O)[C@@H]1O)Oc1ccccc1 [Remdesivir, reference compound]
SARS-CoV-2 [6]; 0.003 μM
  Plaque counts: 353 and 324
SARS-CoV-2 [6]; 0.008 μM
  Plaque counts: 195
SARS-CoV-2 [6]; 0.023 μM
  Plaque counts: 245
SARS-CoV-2 [6]; 0.07 μM
  Plaque counts: 233 and 192
SARS-CoV-2 [6]; 0.21 μM
  Plaque counts: 212 and 200
SARS-CoV-2 [6]; 0.62 μM
  Plaque counts: 274 and 270
SARS-CoV-2 [6]; 1.85 μM
  Plaque counts: 64 and 76
SARS-CoV-2 [6]; 5.56 μM
  Plaque counts: 0
SARS-CoV-2 [6]; 16.67 μM
  Plaque counts: 0
SARS-CoV-2 [6]; 50 μM
  Plaque counts: 0
